Experimental data taken from PubChem BioAssay (NCI).
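Exposure lasted 48 hours, with cells grown in 96-well plates and compounds tested at five concentrations. At the TGI there is no net growth.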

Tests used:
Test in all cases: inhibition of tumour cell growth, NCI panel, 48 h
RXF 393 renal = test system: RXF 393 renal
K-562 leukemia = test system: K-562 leukemia
OVCAR-5 ovarian = test system: OVCAR-5 ovarian
A549 NSCLC = test system: A549 NSCLC
ACHN renal = test system: ACHN renal
MOLT-4 leukemia = test system: MOLT-4 leukemia
HOP-92 NSCLC = test system: HOP-92 NSCLC
EKVX NSCLC = test system: EKVX NSCLC
SK-MEL-28 melanoma = test system: SK-MEL-28 melanoma
KM12 colon = test system: KM12 colon
SF-539 CNS = test system: SF-539 CNS
MALME-3M melanoma = test system: MALME-3M melanoma
786-0 renal = test system: 786-0 renal
HCT-15 colon = test system: HCT-15 colon
MDA-MB-231 breast = test system: MDA-MB-231 breast
HL-60(TB) leukemia = test system: HL-60(TB) leukemia

SMILES	TGI (RXF 393 renal)	TGI (K-562 leukemia)	TGI (OVCAR-5 ovarian)	TGI (A549 NSCLC)	TGI (ACHN renal)	TGI (MOLT-4 leukemia)	TGI (HOP-92 NSCLC)	TGI (EKVX NSCLC)	TGI (SK-MEL-28 melanoma)	TGI (KM12 colon)	TGI (SF-539 CNS)	TGI (MALME-3M melanoma)	TGI (786-0 renal)	TGI (HCT-15 colon)	TGI (MDA-MB-231 breast)	TGI (HL-60(TB) leukemia)
O=c1[nH]c(=O)n(COCc2ccccc2)c2ccsc12	> 100 µM	> 100 µM	> 100 µM	> 100 µM	> 100 µM	> 100 µM	> 100 µM	> 100 µM	> 100 µM	> 100 µM	> 100 µM	> 100 µM	> 100 µM	> 100 µM	> 100 µM	
CCN(CC)C(=O)Cc1c(C(=O)N(CC)CC)c(=O)nc2sccn12	> 100 µM	> 100 µM		> 100 µM	> 100 µM	> 100 µM	> 100 µM	> 100 µM	> 100 µM	> 100 µM	> 100 µM	> 100 µM	> 100 µM	> 100 µM		> 100 µM
CCOC(=O)c1nc2ccc(C(F)(F)F)cc2nc1NCc1ccc(OC)cc1	> 100 µM	> 100 µM	> 100 µM	> 100 µM	> 100 µM	> 100 µM	> 100 µM	> 100 µM		> 100 µM	> 100 µM	> 100 µM	> 100 µM	> 100 µM	> 100 µM	
CCOc1cc(C2SCC(=O)N2c2ccc(Oc3ccc(Cl)cc3)c(Cl)c2)ccc1O (centres undefined)		> 100 µM	53.3 µM	39.7 µM	31.2 µM	64.4 µM	33.7 µM	33.4 µM	38.2 µM	31.8 µM	32.5 µM	32.4 µM	45.8 µM	37 µM	36 µM	47 µM
COc1ccc(N=NC(=O)NC(Cc2ccccc2)C(=O)O)cc1 (centres undefined)	> 100 µM	> 100 µM	> 100 µM	> 100 µM	> 100 µM	> 100 µM	> 100 µM	> 100 µM	> 100 µM	> 100 µM	> 100 µM	> 100 µM	> 100 µM	> 100 µM		> 100 µM
O=C(c1ccccc1)c1c(CC(O)c2ccccn2)n(C(=O)c2ccccc2)c2ccccc12 (centres undefined)		> 100 µM	52.7 µM	> 100 µM	96.6 µM	63.6 µM	57.5 µM		39.6 µM	> 100 µM	31.5 µM	46 µM	> 100 µM	88.1 µM		
CCN(CC)c1cccc2c1/C(=N/O)CCCC2	> 100 µM	> 100 µM		> 100 µM	> 100 µM	> 100 µM		> 100 µM	> 100 µM	> 100 µM		> 100 µM	> 100 µM	> 100 µM		> 100 µM
N#CC(C(=O)c1cccnc1Cl)c1nc2cc(C(F)(F)F)ccc2s1 (centres undefined)	> 100 µM	> 100 µM	> 100 µM	> 100 µM	> 100 µM	> 100 µM	54.4 µM	> 100 µM	> 100 µM	> 100 µM	> 100 µM	> 100 µM	> 100 µM	> 100 µM	> 100 µM	
CN(C)CCCN1C(=S)N(CCCN(C)C)c2c3ccccc3nc3c([N+](=O)[O-])ccc1c23	17.8 µM	> 37.6 µM	39.5 µM	> 42.2 µM	16.1 µM	> 100 µM	19.5 µM	25.1 µM	29.9 µM	16.1 µM	23 µM	6.69 µM	18.2 µM	21.9 µM	24 µM	
C[C@@H](c1ccccc1)n1c(N)c(-c2ccccn2)c2ccc([N+](=O)[O-])cc2c1=O				> 100 µM	> 100 µM		> 100 µM		> 100 µM	> 100 µM			> 100 µM	> 100 µM	> 100 µM	> 100 µM
CCCNC(=S)/N=C/c1c(O)cc(C)oc1=O			> 100 µM	> 100 µM	> 100 µM	> 100 µM	> 100 µM	> 100 µM	> 100 µM	> 100 µM	> 100 µM		> 100 µM	> 100 µM	> 100 µM	
O=C1C[C@H](c2ccccc2)O[C@@H](c2ccccc2)C1	> 100 µM	72.3 µM	> 100 µM	> 100 µM		> 100 µM	> 100 µM	> 100 µM	> 100 µM	> 100 µM	> 100 µM	> 100 µM	> 100 µM	> 100 µM	> 100 µM	
COC(=O)C1CCC(=O)N1CN(C(C)=O)c1ccccc1Cl (centres undefined)	> 100 µM		> 100 µM	> 100 µM	> 100 µM	> 100 µM	> 100 µM	> 100 µM	> 100 µM	> 100 µM	> 100 µM	> 100 µM	> 100 µM	> 100 µM	> 100 µM	
Nc1nc2c3nc(Nc4ccccc4)sc3nc(=S)n2c2sc(Nc3ccccc3)nc12	> 100 µM	> 100 µM		> 100 µM	> 100 µM		52.3 µM	> 100 µM	> 100 µM		> 100 µM	> 100 µM	> 100 µM	> 100 µM		> 100 µM
COc1cc(NS(C)(=O)=O)ccc1Nc1cc[nH]c2ccc3nccc3c12		25.7 µM	30.8 µM	34.9 µM	32.8 µM		24.8 µM	51.3 µM	31.2 µM	28.2 µM		28.7 µM	27.7 µM	> 100 µM	25 µM	53.2 µM
C#C[C@]1(O)CC[C@H]2[C@@H]3CCC4=C/C(=N/OCCN(C)C)CC[C@]4(C)[C@H]3CC[C@@]21C		> 100 µM	> 100 µM	> 100 µM	> 100 µM	> 100 µM	> 100 µM	> 100 µM	> 100 µM	> 100 µM		60.6 µM	> 100 µM	> 100 µM	> 100 µM	
